Measurements reported in the NIST ThermoML archive (doi:10.1021/je900276q).
Several values for one entry are separate records, joined by “and”; a condition that tells them apart may be missing. Equal entries are not always repeated. Numbers after ± are expanded uncertainties.

Conditions: Crystal, Calculated from knudsen effusion weight loss

[F][Ga]([F])[F] [gallium fluoride (GaF3)]
Conditions	vapor or sublimation pressure
808 K	4.677e-05 ± 4.1e-06 kPa
810 K	3.981e-05 ± 3.5e-06 kPa
813 K	4.677e-05 ± 4.1e-06 kPa
816 K	4.677e-05 ± 4.1e-06 kPa
818 K	6.31e-05 ± 5.5e-06 kPa
820 K	5.495e-05 ± 4.8e-06 kPa
822 K	6.31e-05 ± 5.5e-06 kPa
827 K	9.55e-05 ± 8.4e-06 kPa and 7.943e-05 ± 7e-06 kPa
830 K	9.55e-05 ± 8.4e-06 kPa
835 K	0.0001096 ± 9.6e-06 kPa
836 K	0.0001413 ± 1.2e-05 kPa
837 K	0.0001096 ± 9.6e-06 kPa
839 K	0.0001259 ± 1.1e-05 kPa
842 K	0.0002239 ± 2e-05 kPa
843 K	0.0001413 ± 1.2e-05 kPa
844 K	0.000257 ± 2.3e-05 kPa
845 K	0.0001905 ± 1.7e-05 kPa and 0.0002818 ± 2.5e-05 kPa
846 K	0.000166 ± 1.5e-05 kPa
847 K	0.0001738 ± 1.5e-05 kPa and 0.000257 ± 2.3e-05 kPa
852 K	0.0002692 ± 2.4e-05 kPa
853 K	0.0002188 ± 1.9e-05 kPa and 0.0003715 ± 3.2e-05 kPa
854 K	0.0004074 ± 3.6e-05 kPa
855 K	0.0002344 ± 2.1e-05 kPa and 0.0004677 ± 4.1e-05 kPa
856 K	0.0002512 ± 2.2e-05 kPa
857 K	0.0003715 ± 3.3e-05 kPa
859 K	0.0006026 ± 5.3e-05 kPa
861 K	0.0003802 ± 3.3e-05 kPa
862 K	0.0003162 ± 2.8e-05 kPa
863 K	0.0005888 ± 5.1e-05 kPa and 0.0005495 ± 4.8e-05 kPa
864 K	0.0003311 ± 2.9e-05 kPa
866 K	0.0005495 ± 4.8e-05 kPa
867 K	0.0003802 ± 3.3e-05 kPa
869 K	0.0005248 ± 4.6e-05 kPa
870 K	0.0008913 ± 7.8e-05 kPa
871 K	0.0004365 ± 3.8e-05 kPa and 0.0008128 ± 7.1e-05 kPa
872 K	0.0004571 ± 4e-05 kPa and 0.0008128 ± 7.1e-05 kPa
874 K	0.0007413 ± 6.5e-05 kPa
876 K	0.000537 ± 4.7e-05 kPa
878 K	0.0007586 ± 6.6e-05 kPa
880 K	0.0006166 ± 5.4e-05 kPa and 0.001096 ± 0.00012 kPa
881 K	0.001349 ± 0.00015 kPa
882 K	0.0006457 ± 5.6e-05 kPa
884 K	0.0009772 ± 8.6e-05 kPa and 0.001259 ± 0.00014 kPa
885 K	0.0007943 ± 7e-05 kPa and 0.001175 ± 0.00013 kPa
890 K	0.0008511 ± 7.4e-05 kPa and 0.000871 ± 7.6e-05 kPa and 0.001585 ± 0.00018 kPa
893 K	0.001413 ± 0.00016 kPa and 0.002089 ± 0.00024 kPa
894 K	0.001202 ± 0.00013 kPa and 0.001862 ± 0.00021 kPa and 0.001622 ± 0.00018 kPa
895 K	0.001096 ± 0.00012 kPa
898 K	0.002138 ± 0.00025 kPa
900 K	0.001349 ± 0.00015 kPa
901 K	0.001862 ± 0.00021 kPa and 0.002042 ± 0.00023 kPa
902 K	0.002399 ± 0.00028 kPa
903 K	0.00166 ± 0.00019 kPa and 0.002884 ± 0.00034 kPa
904 K	0.001622 ± 0.00018 kPa
907 K	0.002818 ± 0.00033 kPa
909 K	0.002455 ± 0.00029 kPa and 0.001778 ± 0.0002 kPa
910 K	0.00389 ± 0.00047 kPa and 0.002818 ± 0.00033 kPa
911 K	0.002138 ± 0.00025 kPa
913 K	0.002188 ± 0.00025 kPa and 0.003467 ± 0.00042 kPa
916 K	0.002455 ± 0.00029 kPa and 0.003802 ± 0.00046 kPa
918 K	0.00309 ± 0.00037 kPa
919 K	0.00389 ± 0.00047 kPa
920 K	0.00537 ± 0.00067 kPa
921 K	0.002884 ± 0.00034 kPa
923 K	0.003236 ± 0.00039 kPa
924 K	0.005012 ± 0.00063 kPa
925 K	0.005248 ± 0.00066 kPa
928 K	0.007079 ± 0.00091 kPa
929 K	0.005495 ± 0.00069 kPa
934 K	0.007413 ± 0.00096 kPa
935 K	0.007244 ± 0.00093 kPa
938 K	0.00955 ± 0.0013 kPa
939 K	0.007413 ± 0.00096 kPa
942 K	0.00955 ± 0.0013 kPa
945 K	0.01023 ± 0.0014 kPa
946 K	0.009333 ± 0.0012 kPa
947 K	0.01288 ± 0.0018 kPa
948 K	0.01175 ± 0.0016 kPa
955 K	0.01445 ± 0.002 kPa
956 K	0.01413 ± 0.0019 kPa
958 K	0.01698 ± 0.0024 kPa and 0.01318 ± 0.0018 kPa

[I][Ga]([I])[I] [gallium iodide]
Conditions	vapor or sublimation pressure
344.5 K	0.0001445 ± 1.3e-05 kPa
346 K	0.0001698 ± 1.5e-05 kPa and 0.0001445 ± 1.3e-05 kPa
347 K	0.000195 ± 1.7e-05 kPa
348 K	0.000195 ± 1.7e-05 kPa
348.5 K	0.0001445 ± 1.3e-05 kPa
349 K	0.000195 ± 1.7e-05 kPa
349.5 K	0.0002455 ± 2.2e-05 kPa and 0.0002951 ± 2.6e-05 kPa
350 K	0.000195 ± 1.7e-05 kPa
351.5 K	0.0003388 ± 3e-05 kPa
352 K	0.0002455 ± 2.2e-05 kPa
352.5 K	0.0003388 ± 3e-05 kPa
354 K	0.0004365 ± 3.8e-05 kPa and 0.0003388 ± 3e-05 kPa
355 K	0.0003388 ± 3e-05 kPa and 0.000389 ± 3.4e-05 kPa
356 K	0.0004365 ± 3.8e-05 kPa
357 K	0.0004365 ± 3.8e-05 kPa
357.5 K	0.0006761 ± 5.9e-05 kPa and 0.0004898 ± 4.3e-05 kPa
359.5 K	0.000537 ± 4.7e-05 kPa
361.5 K	0.0006761 ± 5.9e-05 kPa
362 K	0.000871 ± 7.6e-05 kPa
364 K	0.0009333 ± 8.2e-05 kPa and 0.0007762 ± 6.8e-05 kPa
365.5 K	0.0009772 ± 8.6e-05 kPa
367 K	0.001148 ± 0.00012 kPa
367.5 K	0.00123 ± 0.00013 kPa
368.5 K	0.001122 ± 0.00012 kPa and 0.00123 ± 0.00013 kPa
370 K	0.001413 ± 0.00016 kPa
372 K	0.001445 ± 0.00016 kPa and 0.00166 ± 0.00019 kPa
372.5 K	0.00166 ± 0.00019 kPa
373 K	0.001905 ± 0.00022 kPa and 0.001738 ± 0.0002 kPa
374.5 K	0.002042 ± 0.00023 kPa and 0.001995 ± 0.00023 kPa
375.5 K	0.002291 ± 0.00026 kPa
377 K	0.002399 ± 0.00028 kPa
377.5 K	0.002692 ± 0.00032 kPa
378 K	0.002951 ± 0.00035 kPa
379 K	0.002951 ± 0.00035 kPa
380 K	0.002951 ± 0.00035 kPa
381.5 K	0.003715 ± 0.00045 kPa
382 K	0.004266 ± 0.00052 kPa
383 K	0.00389 ± 0.00047 kPa
383.5 K	0.004169 ± 0.00051 kPa
384 K	0.004898 ± 0.00061 kPa
387.5 K	0.006607 ± 0.00085 kPa and 0.006026 ± 0.00076 kPa and 0.00631 ± 0.0008 kPa
389.5 K	0.007244 ± 0.00093 kPa
390.5 K	0.00871 ± 0.0011 kPa and 0.007244 ± 0.00093 kPa
391.5 K	0.00871 ± 0.0011 kPa
393.5 K	0.01096 ± 0.0015 kPa and 0.01 ± 0.0013 kPa
394 K	0.009772 ± 0.0013 kPa
397 K	0.0138 ± 0.0019 kPa
398 K	0.01349 ± 0.0018 kPa
400.5 K	0.01778 ± 0.0025 kPa
401 K	0.01698 ± 0.0024 kPa

[Cl][Ga]([Cl])[Cl] [gallium chloride]
Conditions	vapor or sublimation pressure
289 K	0.004266 ± 0.00052 kPa
290.5 K	0.005754 ± 0.00073 kPa
292 K	0.006166 ± 0.00078 kPa
293 K	0.006761 ± 0.00087 kPa and 0.006918 ± 0.00089 kPa
293.5 K	0.007413 ± 0.00096 kPa
294 K	0.007943 ± 0.001 kPa
295.5 K	0.00912 ± 0.0012 kPa
296 K	0.008913 ± 0.0012 kPa
297 K	0.01148 ± 0.0015 kPa and 0.01072 ± 0.0014 kPa and 0.01047 ± 0.0014 kPa
298 K	0.01175 ± 0.0016 kPa
298.5 K	0.01175 ± 0.0016 kPa
299 K	0.01318 ± 0.0018 kPa
299.5 K	0.01349 ± 0.0018 kPa
300.5 K	0.01413 ± 0.0019 kPa and 0.0138 ± 0.0019 kPa
301 K	0.0166 ± 0.0023 kPa
302 K	0.01698 ± 0.0024 kPa
303 K	0.01905 ± 0.0027 kPa and 0.0182 ± 0.0026 kPa
303.5 K	0.02089 ± 0.003 kPa
304.5 K	0.02042 ± 0.0029 kPa
305 K	0.02344 ± 0.0034 kPa and 0.02089 ± 0.003 kPa
306 K	0.02512 ± 0.0036 kPa and 0.02754 ± 0.004 kPa
307 K	0.02884 ± 0.0042 kPa and 0.0263 ± 0.0038 kPa
308 K	0.0309 ± 0.0045 kPa and 0.02951 ± 0.0043 kPa and 0.02818 ± 0.0041 kPa
